# Experimental data as given in patent US9650674B2, “Nucleic acid probes and methods of using the same” (Board of Trustees University of Arkansas, priority 2012, dated 2017).
# {Cy5.5} = Cy5.5 near-infrared fluorophore label at the ends
# Assays:
# DNase I [1] = target: T1, DNase I (Homo sapiens, UniProt P24855); assay: DNase I endonuclease activity measured with AB259.3 probe in presence of inhibitors; assay type: biochemical; details: 1 μg/ml DNase I; EDTA 200 μM; FIG. 2D
# T1 construct: purchased Sigma (St. Louis, Mo.)
# T1 sequence (P24855 23-282): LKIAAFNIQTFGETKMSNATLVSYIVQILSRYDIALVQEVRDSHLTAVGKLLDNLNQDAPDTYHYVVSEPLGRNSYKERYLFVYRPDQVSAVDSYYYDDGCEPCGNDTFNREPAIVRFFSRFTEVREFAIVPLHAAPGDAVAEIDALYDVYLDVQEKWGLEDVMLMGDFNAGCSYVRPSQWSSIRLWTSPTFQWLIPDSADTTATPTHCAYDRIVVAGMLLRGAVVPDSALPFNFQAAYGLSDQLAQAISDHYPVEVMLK
# Description: (§1) To detect specificity of the assay to DNase I that is a Ca/Mg-dependent endonuclease, AB259.3 probe was tested with 1 μg/ml DNase I in the presence of Ca++ and Mg++ (EAA buffer), in absence of the cations (deionized water), or in excess of EDTA (200 μM). […] Finally, it was tested whether AB259.3 probe will detect inhibition of DNase I activity by DNase I inhibitors such as ZnCl2 and Zn-diisopropyl salicylate (Zn-DIPS).
# (§2) All cell-free experiments were performed using the Bio-Tek Synergy 5 fluorescent plate reader. Before experiments, optimal excitation and emission wavelengths were determined. For this, excitation and emission were scanned in the ranges of 600-680 nm and 690-705 nm, respectively. The optimal excitation/emission was determined to be 665/703 nm. All kinetic and endpoint measurements were done in a total volume of 100 μl at 37° C. Unless stated otherwise, DNA substrate was used in final concentration 0.5 μM reconstituted in endonuclease activity assay (EAA) buffer (2 mM CaCl2, 5 mM MgCl2, 10 mM Tris-HCl, pH 7.4) in a 96-well plate. After measurement of starting fluorescence, DNase I or tested material (diluted 1:20 urine or 1:100 serum) were added to the reconstituted probe, rapidly mixed and fluorescence was monitored for up to 60 min with 30-sec intervals. In some instances, EDTA (final concentration 200 μM) or NaOH (50 mM) was added to terminate the reaction. For the experiments that involved assessment of fluorescence after DNA denaturing, probes were tested in Cepheid real-time PCR system using Cy5 setting (Sunnyvale, Calif.).
# [2] = test system: wild-type (WT) mouse kidney cryosections; assay: Endonuclease activity ex vivo in kidney cryosections; details: FIG. 5C
# Description: Next it was examined whether AB259.3 probe can be used for measurement of endonuclease activity in tissue sections. Kidneys were used because they are known for high activity of DNase I (Ca/Mg-dependent endonuclease). Freshly prepared 10 μm thick cryosections of wild-type (WT) mouse kidney were exposed with 5 μM AB259.3 probe in presence of EAA buffer at 37° C. and time-lapse imaged for 10 min with 1-min intervals.
# Specimens of kidney, liver, spleen and testis tissues were removed from euthanized mice, immersed in OCT medium, rapidly frozen by Fisher Freeze-it and kept on dry ice for no longer than 1 hour prior slicing. Tissue cryosections (8-μm thick) were prepared using the Microm HM 505E cryotome, placed to the Fisher Plus slides and immediately exposed with 0.5 μM AB259.3 probe diluted in EAA buffer. In control samples, applied probe contained EAA buffer supplemented with 200 μM EDTA. Images were taken in 628/40-692/40 spectrum every 30 sec for 10 min in 10 random XY coordinates. Three sections from each specimen were analyzed separately. Maximal velocity of increasing fluorescence was averaged for each section.
# NRK-52E cells = assay: Intracellular endonuclease activity in cultured cells, time-lapse microscopy; assay type: cell-based, rat; details: 25 μM cisplatin or 50 μM camptothecin for 8 hours; FIGS. 4B and 4C
# Description: To test whether AB259.3 probe may be delivered intracellularly and thus be used as an indicator of endonuclease activity in live cells, NRK-52E cells were transfected with of AB259.3/Lipofectamine LTX complexes and imaged by time-lapse epifluorescence microscopy every 10 min for 8 hours. A 2.5-3 times increased fluorescence reached plateau in 1 hour after transfection and the cells retained fluorescent dye for the duration of experiment (FIG. 4A). To induce activity of endonucleases, cells were treated with cisplatin or camptothecin and imaged by time-lapse microscopy for Cy5.5 fluorescence. […] Therefore, it was concluded that AB259.3 can be delivered and used for intracellular monitoring of endonuclease activity in live cells. To further determine whether AB259.3 probe can be used in other cell lines, several of them were tested (FIG. 4D). […] It was then determined whether the probe without the loop would be consumed by NRK-52E cells equally to the original loop probe. […] Finally, PCR was used to determine whether the DNA part (as opposed to the fluorophores) of the probes enters the cells in vivo and in vitro.
# Rat proximal tubular epithelial NRK-52E cells were used to test the ability of AB259.3 probe to measure endonuclease activity. The cells were seeded in a 24-well plate at 50,000 cells per well in complete DMEM medium supplemented with 10% fetal bovine serum. Cells were transfected with the AB259.3 probe using Lipofectamin LTX and then subjected to spinning disk confocal fluorescent time-lapse microscopy in 628/40-692/40 spectrum every 10 min for 8 hours using Olympus IX-81 image system equipped with Hamamatsu ORCA-ER camera and LiveCell microenvironmental control chamber (Pathology Devices Inc., Westminster, Md.). In separate experiment, cells were treated with either 25 μM cisplatin or 50 μM camptothecin for 8 hours, followed by 1-hour transfection with AB259.3 probe and 8-hour time-lapse imaging session with 10-min intervals using the same microscopy system.
# [3] = Baseline fluorescence of hairpin DNA probes; assay type: physicochemical; details: FIG. 1B
# Excerpt: It was impossible to determine if the background fluorescence was attributed to the probe or it originated from a partial degradation of the probe. Consequently, the NIRF probes were designed as hairpins to allow testing the integrity of DNA by its denaturing followed by reannealing. The use of hairpin also allows easy measurement of the maximum fluorescence of the probe. The distance between two fluorophores varied by changing of protruding DNA strand length from +0 (AB259.1 probe) to +5 (AB259.3 probe) or to +10 (AB259.5 probe) as shown in FIG. 1A. The baseline fluorescence of probe AB259.1 was 30% higher than negative control without a probe (FIG. 1B).
# as §2
# [4] = Heat denaturing and reannealing of hairpin probes (probe integrity); assay type: physicochemical; details: ROX internal reference; above background; FIG. 1C
# Description: To ensure the integrity of the DNA probes, it was tested whether a heat denaturing of the hairpins would cause an increase in fluorescence, and if a reannealing would reverse it. To compensate for thermal change of fluorophore's emission, the ROX fluorophore was added to tested probes as an internal reference.
# as §2
# [5] = Alkaline denaturing of probes, kinetic fluorescence; assay type: physicochemical; details: alkaline buffer
# Description: Lastly, the probes' integrity was tested by alkaline denaturing. The probes were treated with alkaline buffer and kinetic detection of the fluorescence was performed. […] AB259.1, AB259.3 and AB259.5 gained 40%, 81%, and 85% of fluorescence, respectively.
# as §2
# DNase I [6] = target: T1, DNase I; assay: Kinetic fluorescence of probes exposed to DNase I in vitro; assay type: biochemical; details: probe 0.5 μM, DNase I 1 μg/ml; for gain of fluorescence compared to baseline: twenty min into the reaction, FIG. 2B
# Description: It was hypothesized that exposure of the probes to endonucleases would lead to DNA cleavage and dissociation of protruded strand from the hairpin (FIG. 2A). To assess which of the proposed probes is the best to measure endonuclease activity, the probes (0.5 μM) were exposed with recombinant human DNase I (1 μg/ml) and the kinetic fluorescence curves were recorded. Twenty min into the reaction, AB259.1, AB259.3 and AB259.5 gained 1.75-, 2.6- and 1.62-fold fluorescence, respectively, compared to the baseline (FIG. 2B). At 20-25 min, AB259.1 and AB259.3 reached the plateaus. […] Therefore, AB259.3 was chosen for further experiments.
# as §1, §2
# WT and DNase I KO mice = assay: Intravital imaging of endonuclease activity in kidneys; details: 5 μl DNase I (0.1 mg/ml) subcapsular, left kidney, then AB259.3 50 nmol/kg i.v.; FIGS. 7F and 7G
# Description: At the next step, WT and DNase I KO mice were anesthetized and intravenously administered with 50 nmol/kg of AB259.3 probe followed by intravital imaging using Xenogen-IVIS.
# To additionally confirm preferential accumulation and processing of AB259.3 probe in kidneys, separate set of mice was deeply anesthetized and subjected to abdominal incision and real-time intravital visualization of left kidney while performing intravenous injection of AB259.3 probe. […] For this, DNase I KO animals were subjected to open surgery that was used to administer 5 μl DNase I (0.1 mg/ml) to subcapsular space of upper ventral zone of left kidney. To control effect of DNase I, additional WT and DNase I KO mice were injected with same volume of the vehicle. Immediately after injection, mice were injected with 50 nmol/kg of AB259.3 probe intravenously and then imaged in a Xenogen-IVIS.
# Male DNase I KO mice and their WT counterparts at the age 8-10 weeks were used for all experiments. All procedures with mice were performed under general anesthesia with 50 mg/kg ketamine. For subcutaneous administration, mice were injected with 10 μl of 0.1 μM AB259.3 in the dorsal subcutaneous site. For systemic visualization, AB259.3 was injected intravenously at 50 nmol/kg in tail vein.
# Imaging of live and euthanized mice or their isolated organs were performed using Xenogen IVIS Image System 200 (Caliper Life Sciences, Hopkinton, Mass.) equipped with Living Image® Software.
molecule,measurement,setting,value
"O=C(O)CN(CCN(CC(=O)O)CC(=O)O)CC(=O)O [EDTA, reference compound]",effect on DNase I activity detected by AB259.3 fluorescence,DNase I [1],inhibited
same,effect of EDTA on fluorescence increase in cryosections,[2],the increase of fluorescence was prevented
"CC(C)c1cc(C(=O)O)c([O-])c(C(C)C)c1.CC(C)c1cc(C(=O)O)c([O-])c(C(C)C)c1.[Zn+2] [Zn-DIPS, zinc-diisopropyl salicylate]",effect on DNase I activity detected by AB259.3 fluorescence,DNase I [1],suppressed
"N.N.[Cl][Pt][Cl] [cisplatin, reference compound]",induction of endonuclease activity (Cy5.5 fluorescence of AB259.3 in treated cells),NRK-52E cells,significant increase of fluorescence
"[Cy5.5]AACACTCCGATGAGTGTA[Cy5.5] (DNA, 5' {Cy5.5}, 3' {Cy5.5}, backbone not given here; hairpin DNA probe) [AB259.1, hairpin DNA probe with Cy5.5 at both ends, protruding strand +0]",baseline fluorescence higher than negative control without a probe,[3],30%
same,gain of fluorescence on heat denaturing,[4],2.7 times
same,gain of fluorescence on alkaline denaturing,[5],40%
same,gain of fluorescence compared to baseline,DNase I [6],1.75 fold
"CC[C@@]1(O)C(=O)OCc2c1cc1n(c2=O)Cc2cc3ccccc3nc2-1 [camptothecin, reference compound]",induction of endonuclease activity (Cy5.5 fluorescence of AB259.3 in treated cells),NRK-52E cells,significant increase of fluorescence
"[Cy5.5]AACACTCCGATGAGTGTAGAATGTACGAGT[Cy5.5] (DNA, 5' {Cy5.5}, 3' {Cy5.5}, backbone not given here; hairpin DNA probe) [AB259.5, hairpin DNA probe with Cy5.5 at both ends, protruding strand +10]",baseline fluorescence (in words),[3]; correlated with length of protruded DNA end,much higher levels of the baseline fluorescence
same,gain of fluorescence on heat denaturing,[4],1.8 times
same,gain of fluorescence on alkaline denaturing,[5],85%
same,behaviour of fluorescence at 20-25 min (in words),DNase I [6],became variable and did not yield reliable gain of fluorescence thereafter
same,gain of fluorescence compared to baseline,DNase I [6],1.62 fold
"[Cl-].[Cl-].[Zn+2] [ZnCl2, zinc chloride]",effect on DNase I activity detected by AB259.3 fluorescence,DNase I [1],suppressed
"DNase I: recombinant DNase I delivered to the kidneys of DNase I KO mice (protein, UniProt P24855 23-282, looked up) Deoxyribonuclease-1: LKIAAFNIQTFGETKMSNATLVSYIVQILSRYDIALVQEVRDSHLTAVGKLLDNLNQDAPDTYHYVVSEPLGRNSYKERYLFVYRPDQVSAVDSYYYDDGCEPCGNDTFNREPAIVRFFSRFTEVREFAIVPLHAAPGDAVAEIDALYDVYLDVQEKWGLEDVMLMGDFNAGCSYVRPSQWSSIRLWTSPTFQWLIPDSADTTATPTHCAYDRIVVAGMLLRGAVVPDSALPFNFQAAYGLSDQLAQAISDHYPVEVMLK",kidney Cy5.5 fluorescence of DNase I KO mice after subcapsular DNase I,WT and DNase I KO mice,Cy5.5 fluorescence comparable to WT mice
